Source: patent publication US20260344668A1, “PHENYLPYRAZOLE COMPOUND, AND PLANT DISEASE CONTROL METHOD” (priority 2022, published 2026)

Tests used:
[1] = system: Phakopsora pachyrhizi; experiment: Test Example 15 Control Test Against Soybean Rust Fungus (spore germination, 96 well titer plate); type: cell-based; details: treatment concentration 1 ppm, 23° C., several hours
Experimental: (§1) The term of “non-treated well” in Test Example 4, Test Example 5, and Test Example 6 represents a well wherein a test was carried out under the same conditions as those described in each Test Example except for dispensing DMSO instead of a diluted solution with DMSO comprising the Present compound. Also, the term of “non-treated” in Test Examples 15 to 17 represents a test which was carried out under the same conditions as those described in each Test Example except for dispensing DMSO instead of a diluted solution with DMSO comprising the Present compound. Also, the term of “non-treated leaf disk” in Test Example 7 represents a leaf disk wherein a test was carried out under the same conditions as those described in the Test Example except for dispensing DMSO instead of a diluted solution with DMSO comprising the Present compound. Also, the term of “non-treated” in Test Example 10 and Test Example 11 means that a diluted solution with water of a formulation comprising the Present compound was not sprayed.
The Present compound was diluted with DMSO to obtain a diluted solution containing 150 ppm of the compound, and 1 μL of the diluted solution was dispensed into a titer plate (96 well), and thereto was then dispensed 149 μL of an aqueous suspension (1.0×10^4/mL) of spores of Phakopsora pachyrhizi to which spores of Phakopsora pachyrhizi were suspended in advance. This plate was cultured at 23° C. for several hours, and then germinated spores of Phakopsora pachyrhizi were counted. As a result, when the treatment concentration was 1 ppm, the number of germinated spores in each well comprising any one of the Present compound 1, 11, 17, 18, 20, 23, 30, 33, 34, 35, 36, 37, 38, 39, 40, 41, 42, 43, 44, 46, 47, 48, 49, 50, 51, 52, 53, 54, 55, 56, 57, 58, 62, 63, 64, 65, 66, 67, 68, 69, 70, 71, 72, 73, 74, 75, 76, 77, 78, 79, 80, 81, 82, 83, 84, 85, 86, 87, 88, 89, 90, 91, 92, 93, 94, 95, 96, 97, 98, 99, 100, 101, or 102 as the test compound was 50% or less relative to the number of germinated spores in the non-treated well.

[2] = system: soybean rust fungus (Phakopsora pachyrhizi) having an amino acid substitution of F129L in a mitochondrial cytochrome b protein; experiment: Test Example 7 Control Test Against Soybean Rust (leaf disk); type: in vivo; details: 200 ppm, 10 μL per soybean leaf disk (cultivar: Kurosengoku), inoculated after 1 day
Experimental: as §1
A true leaf of a soybean (cultivar: Kurosengoku) was cut into a diameter of 1 cm to prepare each leaf disk. To each well of a 24 well microplate was dispensed 1 mL of an agar medium (agar concentration 1.2%), and then one of said leaf disk was placed on the agar medium in each well. To a mixture of Sorpol (registered trademark) 1200KX (0.5 μL), DMSO (4.5 μL), and xylene (5 μL) was added a DMSO solution (20 μL) comprising a test compound (10000 ppm), and the resulting mixture was mixed. The resulting mixture was diluted with ion exchange water to prepare a mixture comprising a prescribed concentration of the test compound.
The resulting mixture was sprayed into each leaf disk at a ratio of 10 μL per leaf disk. After 1 day, an aqueous suspension of spores of soybean rust fungus (Phakopsora pachyrhizi) having an amino acid substitution of F129L in a mitochondrial cytochrome b protein (1.0×10^5/mL) was inoculated by spraying on each leaf disk. After the inoculation, the microplate was placed into an artificial climate chamber (Lighting: 6 hours, Lights-out: 18 hours, Temperature: 23° C., Humidity: 60%). After 1 day, the leaf disks were air-dried until water droplets on the surfaces of the leaf disks disappeared, and the microplate was placed into the artificial climate chamber again for 12 days. Then, lesion area of soybean rust was investigated. As a result, when the prescribed concentration was 200 ppm, each lesion area of leaf disk treated with any one of the Present compound 9, 10, 11, 13, 14, 15, 16, 17, 18, 20, 32, 33, 34, 35, 36, 37, 38, 39, 40, 42, 43, 44, 47, 48, 49, 50, 51, 52, 53, 55, 56, 57, 58, 62, 63, 64, 65, 66, 67, 68, 69, 70, 71, 73, 74, 75, 76, 77, 78, 79, 80, 81, 82, 83, 84, 85, 86, 87, 88, 89, 90, 91, 92, 93, 94, 95, 96, 97, 98, 99, 100, 101, or 102 as the test compound was 30% or less relative to the lesion area of non-treated leaf disk.

[3] = system: Phakopsora pachyrhizi; experiment: Test Example 11 Control Test Against Soybean Rust (pot test, spraying before inoculation); type: in vivo; details: 200 ppm foliage spray, soybeans (Kurosengoku), inoculated after 2 to 5 days
Experimental: as §1
A plastic pot was filled with soil, soybeans (cultivar: Kurosengoku) were seeded thereto, and cultured in a greenhouse for 10 to 14 days. The Present compound 9, 10, 11, 13, 14, 15, 17, 18, 20, 21, 22, 23, 26, 27, 33, 34, 35, 36, 37, 38, 39, 40, 41, 42, 43, 44, 46, 47, 53, 54, 55, 56, 57, 58, 66, 67, 68, 69, 70, 71, 73, 74, 75, 76, 77, 78, 79, 80, 81, 82, 83, 84, 85, 86, 87, 88, 89, 90, 91, 92, 93, 94, 95, 96, 97, 98, 99, 100, 101, or 102 formulated according to the method described in the Formulation Example 1 was mixed with water in such a way that the concentration thereof was 200 ppm, and the resulting mixture was sprayed to foliage of the above soybeans so as to adequately adhere onto the surfaces of leaves of the above soybeans. After spraying the mixture, the soybeans were air-dried. After 2 to 5 days, an aqueous suspension of spores of Phakopsora pachyrhizi was inoculated by spraying to the soybeans. After the inoculation, the soybeans were placed in a greenhouse at 23° C. in daytime and at 20° C. in nighttime under a humid condition for 1 to 2 day(s), then cultured in a greenhouse for 12 days, and then a lesion area was investigated. As a result, the lesion area in the soybeans treated with each of the above Present compound was 30% or less relative to the lesion area in the non-treated soybeans.

| SMILES | number of germinated spores relative to the non-treated well [1] | lesion area relative to the lesion area of non-treated leaf disk [2] | lesion area relative to the lesion area in the non-treated soybeans [3] |
| --- | --- | --- | --- |
| O=S(=O)(c1ccco1)n1ccc(-c2ccc(F)c(F)c2)n1 [compound 91] | ≤ 50% | ≤ 30% | ≤ 30% |
| COc1cccc(S(=O)(=O)n2ccc(-c3cc(F)c(Br)c(F)c3)n2)c1 [compound 23] | ≤ 50% |  | ≤ 30% |
| N#Cc1ccc(S(=O)(=O)n2ccc(-c3cc(F)c(Br)c(F)c3)n2)cc1 [compound 27] |  |  | ≤ 30% |
| O=S(=O)(c1cccnc1)n1ccc(-c2cccc(F)c2)n1 [compound 56] | ≤ 50% | ≤ 30% | ≤ 30% |
| O=S(=O)(c1ccco1)n1ccc(-c2ccccc2)n1 [compound 85] | ≤ 50% | ≤ 30% | ≤ 30% |
| O=S(=O)(c1ccoc1)n1ccc(-c2cccc(F)c2)n1 [compound 95] | ≤ 50% | ≤ 30% | ≤ 30% |
| O=S(=O)(c1cccs1)n1ccc(-c2ccc3ocnc3c2)n1 [compound 67] | ≤ 50% | ≤ 30% | ≤ 30% |
| Cn1ccnc1S(=O)(=O)n1ccc(-c2cc(F)c(Br)c(F)c2)n1 [compound 38] | ≤ 50% | ≤ 30% | ≤ 30% |
| Cc1ccc(S(=O)(=O)n2ccc(-c3cc(F)c(Br)c(F)c3)n2)cc1 [compound 21] |  |  | ≤ 30% |
| Cc1ccc(S(=O)(=O)n2ccc(-c3ccc(Cl)cc3)n2)cc1 [compound 1] | ≤ 50% |  |  |
| CN(C)c1ccc(-c2ccn(S(=O)(=O)c3cccs3)n2)cc1 [compound 46] | ≤ 50% |  | ≤ 30% |
| O=S(=O)(c1cccnc1)n1ccc(-c2ccc(F)c(F)c2)n1 [compound 101] | ≤ 50% | ≤ 30% | ≤ 30% |
| O=S(=O)(c1ccc(Cl)s1)n1ccc(-c2cc(F)c(Br)c(F)c2)n1 [compound 47] | ≤ 50% | ≤ 30% | ≤ 30% |
| Cc1ccc(S(=O)(=O)n2ccc(-c3cc(F)c(Br)c(F)c3)n2)o1 [compound 72] | ≤ 50% |  |  |
| O=S(=O)(c1ccccc1F)n1ccc(-c2cc(F)c(Br)c(F)c2)n1 [compound 13] |  | ≤ 30% | ≤ 30% |
| O=S(=O)(c1c(Cl)cccc1Cl)n1ccc(-c2cc(F)c(Br)c(F)c2)n1 [compound 15] |  | ≤ 30% | ≤ 30% |
| O=S(=O)(c1ccc(F)cc1)n1ccc(-c2cc(F)c(Br)c(F)c2)n1 [compound 14] |  | ≤ 30% | ≤ 30% |
| O=S(=O)(c1cncc(F)c1)n1ccc(-c2cc(F)c(Br)c(F)c2)n1 [compound 100] | ≤ 50% | ≤ 30% | ≤ 30% |
| O=S(=O)(c1cccs1)n1ccc(-c2cc(F)cc(F)c2)n1 [compound 75] | ≤ 50% | ≤ 30% | ≤ 30% |
| COc1ccc(S(=O)(=O)n2ccc(-c3cc(F)c(Br)c(F)c3)n2)cc1 [compound 22] |  |  | ≤ 30% |
| O=S(=O)(c1ccco1)n1ccc(-c2cccc(F)c2)n1 [compound 94] | ≤ 50% | ≤ 30% | ≤ 30% |
| O=S(=O)(c1ccco1)n1ccc(-c2ccc(F)cc2)n1 [compound 88] | ≤ 50% | ≤ 30% | ≤ 30% |
| O=S(=O)(c1cccs1)n1ccc(-c2ccccc2)n1 [compound 87] | ≤ 50% | ≤ 30% | ≤ 30% |
| O=S(=O)(c1cccs1)n1ccc(-c2ccc3nonc3c2)n1 [compound 64] | ≤ 50% | ≤ 30% |  |
| O=S(=O)(c1cc2ccccc2o1)n1ccc(-c2cc(F)c(Br)c(F)c2)n1 [compound 30] | ≤ 50% |  |  |
| O=S(=O)(c1cc(Cl)cc(Cl)c1)n1ccc(-c2cc(F)c(Br)c(F)c2)n1 [compound 16] |  | ≤ 30% |  |
| O=S(=O)(c1cccs1)n1ccc(-c2ccc3ncsc3c2)n1 [compound 65] | ≤ 50% | ≤ 30% |  |
| N#Cc1cccc(S(=O)(=O)n2ccc(-c3cc(F)c(Br)c(F)c3)n2)c1 [compound 26] |  |  | ≤ 30% |
| O=S(=O)(c1cccs1)n1ccc(-c2ccc3c(c2)OC(F)(F)O3)n1 [compound 63] | ≤ 50% | ≤ 30% |  |
| O=S(=O)(c1cccnc1Cl)n1ccc(-c2cc(F)c(Br)c(F)c2)n1 [compound 54] | ≤ 50% |  | ≤ 30% |
